Results taken from article PMC10569036.

Columns and labels:
[1] = shake flask on a mixture of 185; loss from the water phase only; LC-QTOF peak areas; conditions: room
[2] = shake flask on a mixture of 185; loss from the water phase only; LC-Orbitrap peak areas; conditions: room

Row | SMILES | log partition 1-octanol / HPLC water, unbuffered, traces of methanol / DMSO [1] [log10] | log partition butyl acetate / HPLC water, unbuffered, traces of methanol / DMSO [1] [log10] | log partition chloroform / HPLC water, unbuffered, traces of methanol / DMSO [1] [log10] | log partition dichloromethane / HPLC water, unbuffered, traces of methanol / DMSO [1] [log10] | log partition oleylalcohol / HPLC water, unbuffered, traces of methanol / DMSO [1] [log10] | log partition toluene / HPLC water, unbuffered, traces of methanol / DMSO [1] [log10] | log partition 1-octanol / HPLC water, unbuffered, traces of methanol / DMSO [2] [log10] | log partition butyl acetate / HPLC water, unbuffered, traces of methanol / DMSO [2] [log10] | log partition chloroform / HPLC water, unbuffered, traces of methanol / DMSO [2] [log10] | log partition dichloromethane / HPLC water, unbuffered, traces of methanol / DMSO [2] [log10] | log partition oleylalcohol / HPLC water, unbuffered, traces of methanol / DMSO [2] [log10] | log partition toluene / HPLC water, unbuffered, traces of methanol / DMSO [2] [log10] | log partition cyclohexane / HPLC water, unbuffered, traces of methanol / DMSO [1] [log10] | log partition n-hexane / HPLC water, unbuffered, traces of methanol / DMSO [1] [log10] | log partition n-octane / HPLC water, unbuffered, traces of methanol / DMSO [1] [log10] | log partition n-undecane / HPLC water, unbuffered, traces of methanol / DMSO [1] [log10] | log partition cyclohexane / HPLC water, unbuffered, traces of methanol / DMSO [2] [log10] | log partition n-hexane / HPLC water, unbuffered, traces of methanol / DMSO [2] [log10] | log partition n-octane / HPLC water, unbuffered, traces of methanol / DMSO [2] [log10] | log partition n-undecane / HPLC water, unbuffered, traces of methanol / DMSO [2] [log10]
1 | CCNC(=O)C1CC(C)CCC1C(C)C (stereo not shown) | 1.736 | 1.72 | 1.704 | 1.778 | 1.811 | 1.717 | 0.07926 | -0.1005 | 0.05708 | -0.08543 | -0.02549 | -0.1964 | – | – | – | – | – | – | – | –
2 | OCCN(CCO)c1ccccc1 | 0.7171 | 0.3605 | -0.02211 | 0.1152 | 0.6347 | -1.086 | 0.493 | 0.5439 | 0.2882 | 0.4782 | 0.1818 | -0.4224 | -1.946 | -1.82 | -2.014 | -1.783 | -0.9006 | -1.209 | -0.9336 | -1.048
3 | CC(C)N1C(=O)c2ccccc2NS1(=O)=O | -1.303 | -1.026 | 0.1169 | 0.3228 | -1.143 | -0.5708 | 0.1891 | -1.323 | 1.041 | 0.004436 | -0.1011 | -0.9524 | -1.509 | -1.425 | -1.602 | -1.756 | -0.4548 | -0.9186 | -0.654 | -1.481
